Measurements as given in publication PMC9774128, “New Insights into the Mechanism of Antibacterial Action of Synthetic Peptide Mo-CBP3-PepI against Klebsiella pneumoniae” (Antibiotics, 2022).

Columns and labels:
[1] = test system: L929 (murine fibroblasts); assay: Cytotoxicity MTT assay; assay type: cell-based, mice; details: peptide 1 mg mL^−1, MMS 4 × 10^−5 M, absorbance 595 nm, three independent experiments
Experimental: (§1) The cytotoxicity assay was assessed by measuring the ability of live cells to convert a yellow dye, 3-(4,5-dimethyl-2-thiozolyl)-2,5-diphenyl-2H-tetrazolium bromide (MTT), to formazan. The cell lines used were L929 (murine fibroblasts, ATCC number CCL-1), MRC-5 (human lung fibroblasts, ATCC number CCL-171), and HaCaT (human keratinocytes) following the methodology described by Souza et al.. Cells were treated with Mo-CBP3-PepI at 1 mg mL^−1. The alkylating agent methyl methanesulfonate (MMS) at 4 × 10^−5 M was used as the positive control. The MTT formazan product was dissolved in 150 µL of DMSO, and the absorbance was measured using a multiplate reader (Spectra Count, Packard, Mississauga, ON, Canada). The drug effect was quantified as the percentage of control absorbance of the reduced dye at 595 nm.

[2] = test system: HaCaT (human keratinocytes); assay: Cytotoxicity MTT assay; assay type: cell-based; details: peptide 1 mg mL^−1, MMS 4 × 10^−5 M, absorbance 595 nm, three independent experiments
Experimental: as §1

[3] = test system: MRC-5 (human lung fibroblasts); assay: Cytotoxicity MTT assay; assay type: cell-based; details: peptide 1 mg mL^−1, MMS 4 × 10^−5 M, absorbance 595 nm, three independent experiments
Experimental: as §1

L929 cells [4] = assay: Alkaline comet assay (DNA damage); assay type: cell-based, mice; details: MMS 4 × 10^−5 M, 24 h
Experimental: (§2) For this assay, MMS at 4 × 10^−5 M was used as the positive control for DNA damage, and peptides were assayed at 1 mg mL^−1. The standard alkaline comet assay (single-cell gel electrophoresis) after treatment (24 h). Cells were washed with ice-cold PBS, trypsinized, and resuspended in a complete medium. […] Afterward, the slides were placed in a horizontal electrophoresis unit and incubated with fresh buffer solution (0.3 M NaOH, 0.001 M EDTA, pH 13.0) at 4 °C for 20 min to allow DNA to unwind and the expression of alkali-labile sites. Electrophoresis was conducted for 20 min at 25 V ([…]). All the above steps were performed in the dark to prevent additional DNA damage. Slides were neutralized (0.4 M Tris, pH 7.5) and stained using 20 µg mL of ethidium bromide. Three hundred cells (100 cells from each of the three replicate slides for each treatment) were selected, coded, and blindly analyzed for DNA migration. These cells were visually scored according to tail length into five classes: • Class 0: undamaged, without a tail; • Class 1: with a tail shorter than the diameter of the head nucleus; • Class 2: with tail length 1–2× the diameter of the head; • Class 3: with a tail longer than 2× the diameter of the head; • Class 4: comets with no heads. The index of damage (ID) value was calculated for each sample. […]

HaCaT cells [5] = assay: Alkaline comet assay (DNA damage); assay type: cell-based, human; details: peptide 1 mg mL^−1, MMS 4 × 10^−5 M, 24 h
Experimental: as §2

MRC-5 cells [6] = assay: Alkaline comet assay (DNA damage); assay type: cell-based, human; details: peptide 1 mg mL^−1, MMS 4 × 10^−5 M, 24 h
Experimental: as §2

L929 cells [7] = assay: Morphological analysis of apoptotic cells (AO/EB staining); assay type: cell-based, mice; details: peptide 1 mg mL^−1, MMS 4 × 10^−5 M, 24 h
Experimental: (§3) For this assay, the concentration of peptides was 1 mg mL^−1. […] Peptides and control solutions were incubated as described above. Cells with the morphological characteristics of apoptosis, such as apoptotic bodies, peripheral condensation of chromatin, fragmented nucleus, and small cell volume, were evaluated after 24 h of treatment, either with controls or peptides. The evaluation was executed using acridine orange (AO)/ethidium bromide (EB) staining assay. A total of 50 µL of the cell suspension was mixed with 1 µL of the staining solution (100 µg/mL AO + 100 µg/mL EB in PBS) and spread on a slide, where 300 cells were counted per data point.

HaCaT cells [8] = assay: as above; assay type: cell-based, human; details: peptide 1 mg mL^−1, MMS 4 × 10^−5 M, 24 h
Experimental: as §3

MRC-5 cells [9] = assay: as above; assay type: cell-based, human; details: peptide 1 mg mL^−1, MMS 4 × 10^−5 M, 24 h
Experimental: as §3

COS(C)(=O)=O [MMS, methyl methanesulfonate]
cell viability (MTT) [1]: death of all cells
cell viability (MTT) [2]: death of all cells
cell viability (MTT) [3]: death of all cells
DNA damage (comet assay) (L929 cells [4]): completely damaged DNA
DNA damage (comet assay) (HaCaT cells [5]): completely damaged DNA
DNA damage (comet assay) (MRC-5 cells [6]): completely damaged DNA
cell morphology / apoptosis (L929 cells [7]): severe damage to DNA and nuclei structure
cell morphology / apoptosis (HaCaT cells [8]): severe damage to DNA and nuclei structure
cell morphology / apoptosis (MRC-5 cells [9]): severe damage to DNA and nuclei structure
